Laboratory results taken from patent publication US6056942A, “5-HT1A ligands” (John Wyeth & Brother, Ltd., priority 1993, dated 2000).
Read-outs that look alike come from different tables or passages of the source.

Tests used:
5-HT1A binding site [1] = target: T1, 5-HT1A binding site (Rattus norvegicus, UniProt P19327)
T1 sequence (P19327 1-422): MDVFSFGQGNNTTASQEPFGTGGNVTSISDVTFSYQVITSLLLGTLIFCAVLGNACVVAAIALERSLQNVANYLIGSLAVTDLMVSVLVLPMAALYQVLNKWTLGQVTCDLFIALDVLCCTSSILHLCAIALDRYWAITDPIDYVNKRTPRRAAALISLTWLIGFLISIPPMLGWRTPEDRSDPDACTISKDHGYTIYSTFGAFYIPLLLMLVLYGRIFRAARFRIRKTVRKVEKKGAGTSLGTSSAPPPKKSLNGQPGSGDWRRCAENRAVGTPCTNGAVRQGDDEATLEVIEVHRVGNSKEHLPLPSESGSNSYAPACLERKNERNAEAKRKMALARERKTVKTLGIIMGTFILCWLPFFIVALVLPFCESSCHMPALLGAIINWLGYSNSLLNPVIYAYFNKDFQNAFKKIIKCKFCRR

5-HT1A binding site [2] = target: T1, 5-HT1A binding site; test: biochemical
5-HT1A receptor = target: T2, 5-HT1A receptor (Rattus norvegicus, UniProt P19327); test: Procedure (A): displacement of [^3 H]-8-OH-DPAT from the 5-HT1A receptor in rat hippocampal membranes; type: binding; conditions: [^3 H]-8-OH-DPAT displacement, read-out: IC50 value according to procedure (A)
T2 construct: 5-HT1A receptor in rat hippocampal membranes; from tissue; host or cells: rat hippocampal membranes
T2 sequence (P19327 1-422): T1 sequence (P19327 1-422)

D2 = D2 (Homo sapiens, UniProt P14416); test: Procedure (B): affinity for D2 receptor sites; type: binding; conditions: for inhibition at 1 µM: 10^-6 M, read-out: % inhibition of binding at D2
D2, sequence (P14416 whole entry): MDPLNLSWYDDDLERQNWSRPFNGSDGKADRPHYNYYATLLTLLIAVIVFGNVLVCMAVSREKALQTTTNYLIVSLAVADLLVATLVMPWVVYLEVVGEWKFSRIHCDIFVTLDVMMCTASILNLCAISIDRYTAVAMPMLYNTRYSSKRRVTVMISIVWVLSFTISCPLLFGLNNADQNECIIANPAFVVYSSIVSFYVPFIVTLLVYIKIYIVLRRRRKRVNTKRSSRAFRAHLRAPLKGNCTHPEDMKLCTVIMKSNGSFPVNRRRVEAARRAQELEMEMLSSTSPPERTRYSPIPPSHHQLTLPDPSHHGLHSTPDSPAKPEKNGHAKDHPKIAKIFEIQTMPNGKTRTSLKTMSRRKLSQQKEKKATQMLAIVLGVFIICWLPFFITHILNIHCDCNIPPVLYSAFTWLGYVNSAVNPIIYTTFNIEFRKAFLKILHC
Method: The affinity of the compounds for D2 receptor sites is determined by the procedure of P. Seeman et al. J. Neurochem. 1984, 43, 221-235.

5-HT2A = target: T3, 5-HT2A (Rattus norvegicus, UniProt P14842); test: Procedure (B): affinity for 5-HT2A sites; type: binding; conditions: for inhibition at 1 µM: 10^-6 M, read-out: % inhibition of binding at 5-HT2A
T3 construct: from tissue
T3 sequence (P14842 whole entry): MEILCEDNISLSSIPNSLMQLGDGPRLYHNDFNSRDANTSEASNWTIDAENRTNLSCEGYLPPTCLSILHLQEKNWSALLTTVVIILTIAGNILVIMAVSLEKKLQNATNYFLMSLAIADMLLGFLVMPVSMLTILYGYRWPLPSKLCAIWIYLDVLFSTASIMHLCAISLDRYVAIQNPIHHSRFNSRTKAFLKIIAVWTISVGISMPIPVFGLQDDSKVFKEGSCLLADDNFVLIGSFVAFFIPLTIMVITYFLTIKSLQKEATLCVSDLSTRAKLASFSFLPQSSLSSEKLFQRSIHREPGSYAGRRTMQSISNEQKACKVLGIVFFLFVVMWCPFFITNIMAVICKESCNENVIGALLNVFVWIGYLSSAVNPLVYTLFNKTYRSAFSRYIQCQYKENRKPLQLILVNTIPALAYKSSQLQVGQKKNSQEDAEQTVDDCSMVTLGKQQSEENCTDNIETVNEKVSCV
Method: The affinity of the compound for 5-HT2A sites is determined by the procedure of R. A. Lyon et al. Mol. Pharmacol., 1987, 31, 194-199. (The 5-HT2A site was previously known as the 5-HT2 site).
(§1) Preferably the compound should be 50 fold selective.

5-HT1B = target: T4, 5-HT1B (Rattus norvegicus, UniProt P28564); test: Procedure (B): affinity for 5-HT1B sites; conditions: 10^-6 M; read-out: % inhibition of binding at 5-HT1B
T4 construct: from tissue
T4 sequence (P28564 whole entry): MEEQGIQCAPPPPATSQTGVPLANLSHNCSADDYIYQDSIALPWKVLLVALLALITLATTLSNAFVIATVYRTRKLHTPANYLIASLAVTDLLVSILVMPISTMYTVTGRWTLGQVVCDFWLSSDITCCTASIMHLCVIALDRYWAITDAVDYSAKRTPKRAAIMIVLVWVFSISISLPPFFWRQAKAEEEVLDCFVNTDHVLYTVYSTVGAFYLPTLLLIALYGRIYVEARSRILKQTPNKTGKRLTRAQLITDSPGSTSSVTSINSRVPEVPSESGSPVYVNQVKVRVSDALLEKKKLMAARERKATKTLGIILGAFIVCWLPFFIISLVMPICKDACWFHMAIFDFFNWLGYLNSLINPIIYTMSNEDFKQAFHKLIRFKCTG
Method: (§2) In addition to showing selectivity over the D2, α1 and 5-HT2A sites it is also preferable that the compound is 25 fold selective (preferably 50 fold selective) over one or more of the 5-HT1B, 5-HT2C, 5-HT1D, 5-HT3, α2, β and D1 sites. The affinity for these sites is determined by the following procedures.
5-HT1B : B. J. Alexander et al., Br. J. Pharmac., 1986, 87, P 22.

α2 = target: T5, α2 (Rattus norvegicus, UniProt P22909); test: Procedure (B): affinity for α2 sites; conditions: 10^-6 M; read-out: % inhibition of binding at α2
T5 construct: from tissue
T5 sequence (P22909 1-465): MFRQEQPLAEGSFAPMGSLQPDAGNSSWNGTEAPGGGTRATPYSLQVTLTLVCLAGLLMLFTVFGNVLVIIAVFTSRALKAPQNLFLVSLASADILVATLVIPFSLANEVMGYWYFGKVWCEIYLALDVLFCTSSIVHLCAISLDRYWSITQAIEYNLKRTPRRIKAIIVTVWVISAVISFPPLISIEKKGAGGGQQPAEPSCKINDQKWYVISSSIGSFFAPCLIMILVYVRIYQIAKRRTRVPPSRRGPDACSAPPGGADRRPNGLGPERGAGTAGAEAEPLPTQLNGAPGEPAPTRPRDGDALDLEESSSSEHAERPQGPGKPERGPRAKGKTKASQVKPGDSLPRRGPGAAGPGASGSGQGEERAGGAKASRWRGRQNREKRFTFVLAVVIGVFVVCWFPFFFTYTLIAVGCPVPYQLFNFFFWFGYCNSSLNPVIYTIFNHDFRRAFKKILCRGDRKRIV
Method: The affinity for these sites is determined by the following procedures. α2 : D. J. Loftus et al. Life Sciences, 1984, 34, 61-69.

D1 = target: T6, D1 (Rattus norvegicus, UniProt P18901); test: Procedure (B): affinity for D1 sites; conditions: 10^-6 M; read-out: % inhibition of binding at D1
T6 construct: from tissue
T6 sequence (P18901 whole entry): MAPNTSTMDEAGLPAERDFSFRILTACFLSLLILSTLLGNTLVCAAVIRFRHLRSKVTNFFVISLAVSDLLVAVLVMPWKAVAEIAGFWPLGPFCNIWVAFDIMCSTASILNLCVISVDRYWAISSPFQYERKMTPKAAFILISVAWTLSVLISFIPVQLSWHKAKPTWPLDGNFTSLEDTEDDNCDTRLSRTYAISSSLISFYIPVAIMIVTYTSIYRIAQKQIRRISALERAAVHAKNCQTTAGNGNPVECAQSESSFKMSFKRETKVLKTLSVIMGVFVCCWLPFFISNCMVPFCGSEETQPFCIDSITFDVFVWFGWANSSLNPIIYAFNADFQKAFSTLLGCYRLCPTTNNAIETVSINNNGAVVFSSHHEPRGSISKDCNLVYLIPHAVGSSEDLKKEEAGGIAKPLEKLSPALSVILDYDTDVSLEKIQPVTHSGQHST
Method: The affinity for these sites is determined by the following procedures. D1 : V Billard et al. Life Sciences. 1984, 35, 1885-1893.

α1 = test: Procedure (B): affinity for α1 sites; type: binding
Method: The affinity of the compound for al sites is determined by the procedure of A. L. Morrow, et al. Mol. Pharmacol. 1986, 29, 321.
as §1

5-HT2C = test: Procedure (B): affinity for 5-HT2C (previously 5-HT1C) sites; type: binding; conditions: 10^-6 M
Method: as §2
5-HT2C : B. J. Alexander et al., Br. J. Pharmac., 1986, 87, P 22. (The 5-HT2C site was previously known as the 5-HT1C site).

5-HT1D = test: Procedure (B): affinity for 5-HT1D sites; type: binding
Method: The affinity for these sites is determined by the following procedures. […] C. Waeber et al., Naunyn-Schmniedebergs Arch. Pharmacol. 1988, 337, 595-601.

β = test: Procedure (B): affinity for β sites; type: binding; conditions: 10^-6 M
Method: The affinity for these sites is determined by the following procedures. β: L. T. Williams and R. J. Lefkowitz (1987) Receptor binding studies in adrenergic pharmacology, Raven Press, New York.

[3] = target: T7, presynaptic 5-HT1A receptors (Rattus norvegicus, UniProt P19327); test: Procedure (C)(b): 5-HT release in the hippocampus using in vivo microdialysis; conditions: 1 mg/kg s.c.
T7 construct: 5-HT release in the hippocampus using in vivo microdialysis; from tissue; host or cells: brain of the living animal
T7 sequence (P19327 1-422): T1 sequence (P19327 1-422)
From the text: (§3) The activation of presynaptic 5-HT1A receptors results in the inhibition of serotonin neurones which can be quantified in two ways:
Routledge, J. Gurling, I. K. Wright and C.

[4] = target: T7, presynaptic 5-HT1A receptors; test: Procedure (C)(a): electrophysiological monitoring of firing rate of serotonin neurones; type: in vivo; conditions: iv, read-out: ID50 (neuronal firing rate)
Method: as §3
(a) Electrophysiologically monitoring the activity of the neurones to measure their firing rate by the method of H. J. Haigler and G. K. Aghajanian, J. Pharmacol. Exp. Therap., 1974, 188, 688. An intravenous ID50 dose is determined. The agonist.

[5] = concentration of 10 MM (so in the source)
[6] = concentration not clearly stated ("as were")

COCCCC/C(=N\OCCN)c1ccc(C(F)(F)F)cc1 [fluvoxarnine]
activity against [^3 H]WAY-100635 binding (5-HT1A binding site [1]; micromolar concentrations): inactive

CSc1ccc2c(c1)C(N1CCN(C)CC1)Cc1ccccc1S2 (centres unmarked) [methiothepin]
IC50 (5-HT1A binding site [2]): 10 to 100 nM

COc1ccccc1N1CCN(CC(C(=O)NC(C)(C)C)c2ccccc2)CC1 (racemic) [racemate, N-tert-butyl-3-[4-(2-methoxyphenyl)piperazinyl]-2-phenylpropanamide]
IC50 (5-HT1A receptor): 34 nM | inhibition at 1 µM (D2): 14% | inhibition at 1 µM (5-HT2A): 37% | inhibition at 1 µM (5-HT1B): 27% | inhibition at 1 µM (α2): 10% | inhibition at 1 µM (D1): 20%

CNC[C@H](O)c1cccc(O)c1 [L-phenylephrine]
displacement of hippocampal [^3 H]WAY-100635 binding (5-HT1A binding site [1]; [5]): ineffective

COc1ccccc1N1CCN(CC[C@@H](C(=O)N2CCCCCC2)c2ccccc2)CC1 [(c)]
IC50 (5-HT1A receptor): 0.3 nM | IC50 (D2; procedure (B)): 277 nM | IC50 (α1): 53 nM | IC50 (5-HT2A; procedure (B)): 106 nM | inhibition at 1 µM (5-HT1B): < 50% | % inhibition of binding at 5-HT2C (5-HT1C) (5-HT2C): < 50% | IC50 (5-HT1D; procedure (B)): 2240 nM | inhibition at 1 µM (α2): 53% | % inhibition of binding at β (β): < 50% | inhibition at 1 µM (D1): < 50% | effect of pretreatment on 8-OH-DPAT-induced decrease in 5-HT release [3]: completely blocked the 8-OH-DPAT-induced decrease in 5-HT release | effect on 5-HT release / extracellular levels of 5-HT in the hippocampus [3]: no significant effect on extracellular levels of 5-HT in the hippocampus

O=C1CN=C(c2ccccc2Cl)c2cc([N+](=O)[O-])ccc2N1 [clonazepam]
displacement of hippocampal [^3 H]WAY-100635 binding (5-HT1A binding site [1]; [6]): ineffective

NC[C@H](O)c1ccc(O)c(O)c1 [noradrenaline]
displacement of hippocampal [^3 H]WAY-100635 binding (5-HT1A binding site [1]; [5]): ineffective

NCCc1ccc(O)c(O)c1 [dopamine]
displacement of hippocampal [^3 H]WAY-100635 binding (5-HT1A binding site [1]; [5]): ineffective

CN(C)CCCN1c2ccccc2CCc2ccccc21 [imipramine]
displacement of hippocampal [^3 H]WAY-100635 binding (5-HT1A binding site [1]; [6]): ineffective

NCCc1c[nH]c2ccc(C(N)=O)cc12 [Compound 5-CT]
IC50 (5-HT1A binding site [2]): 10 to 100 nM

CCCN(CCC)C1CCc2cccc(O)c2C1 (centres unmarked) [Compound 8-OH-DPAT]
ED50 [4]: 1.9 µg/kg

COC(=O)c1cc2c(N3CCN(CCCCN4C(=O)c5ccccc5S4(=O)=O)CC3)cccc2[nH]1 [SDZ-216525]
IC50 (5-HT1A binding site [2]): 5 nM

COc1ccccc1N1CCN(CCCCN2C(=O)c3ccccc3C2=O)CC1 [NAN 190]
IC50 (5-HT1A binding site [2]): 10 to 100 nM

COc1ccccc1N1CCN(CCN(C(=O)C2CCCCC2)c2ccccn2)CC1 [Compound (a), N-(2-(1-(4-(2-methoxyphenyl)piperazinyl))ethyl)-N-(2-pyridinyl)cyclohexanecarboxamide]
inhibition at 1 µM (D2): < 50% | inhibition at 1 µM (5-HT2A): < 50% | inhibition at 1 µM (5-HT1B): < 50% | % inhibition of binding at 5-HT2C (5-HT1C) (5-HT2C): < 50% | % inhibition of binding at 5-HT1D (5-HT1D; 10^-6 M): < 50% | inhibition at 1 µM (α2): < 50% | % inhibition of binding at β (β): < 50% | inhibition at 1 µM (D1): < 50%

COc1ccccc1N1CCN(CC(C(=O)NC(C)(C)C)c2ccccc2)CC1 (single isomer, unassigned; (+)) [(+)-enantiomer, N-tert-butyl-3-[4-(2-methoxyphenyl)piperazinyl]-2-phenylpropanamide]
IC50 (5-HT1A receptor): 15.5 nM | inhibition at 1 µM (D2): 20% | inhibition at 1 µM (5-HT2A): 61% | inhibition at 1 µM (5-HT1B): 22% | inhibition at 1 µM (α2): 11% | inhibition at 1 µM (D1): 22%

CC(C)NCC(O)c1ccc(O)c(O)c1 (centres unmarked) [isoprenaline]
displacement of hippocampal [^3 H]WAY-100635 binding (5-HT1A binding site [1]; [5]): ineffective
